Source: ChEMBL document CHEMBL3137381, “MMV Box Onchocerca lienalis screening set”

Columns and labels:
Type in all cases: functional
Onchocerca lienalis [1] = assay: MMV: Percent motility assay at a compound concentration of 1.25e-5 M. Activity score legend: 3: Active, 2: Moderately active; 1: Inactive, 0: Toxic; settings: at 12.5 µM
Onchocerca lienalis [2] = assay: MMV: Percent motility assay at a compound concentration of 7.8e-7 M. Activity score legend: 3: Active, 2: Moderately active; 1: Inactive, 0: Toxic; settings: at 0.78 µM
Onchocerca lienalis [3] = assay: MMV: Percent motility assay at a compound concentration of 3.1e-6 M. Activity score legend: 3: Active, 2: Moderately active; 1: Inactive, 0: Toxic; settings: at 3.1 µM
Onchocerca lienalis [4] = assay: MMV: Percent motility assay at a compound concentration of 1.9e-7 M. Activity score legend: 3: Active, 2: Moderately active; 1: Inactive, 0: Toxic; settings: at 0.19 µM

| Structure (SMILES) | Motility (Onchocerca lienalis [1]) [%] | Motility (Onchocerca lienalis [2]) [%] | Motility (Onchocerca lienalis [3]) [%] | Motility (Onchocerca lienalis [4]) [%] |
| --- | --- | --- | --- | --- |
| CCOc1cc(CNC(C)C(O)c2ccccc2)cc(Cl)c1OCC (configuration not stated) | 100 | 100 | 100 | 100 |
| Cc1cc(NC(=O)c2cccc(C(F)(F)F)c2)n(-c2nc(-c3ccc4c(c3)OCO4)cs2)n1 | 100 | 100 | 100 | 100 |
| COc1cccc(C2(C)Nc3ccccc3-c3nc4ccccc4n32)c1 (configuration not stated) | 100 | 100 | 100 | 100 |
| CC(C)CNC(=O)c1c(N)n(CCc2ccccc2F)c2nc3ccccc3nc12 | 100 | 100 | 100 | 100 |
| Cc1cccc(-n2ncc3c(O)nc(-n4nc(C)cc4NC(=O)c4cc5ccccc5o4)nc32)c1 | 0 | 100 | 100 | 100 |
| Oc1ccccc1CN1CCC2(CCCN(Cc3ccccc3F)C2)C1 (configuration not stated) | 100 | 100 | 100 | 100 |
| COc1cccc(Nc2nc(NCCO)c3ccccc3n2)c1.Cl | 100 | 100 | 100 | 100 |
| Cc1ccc(-c2cc(C(=O)Nc3ccc(S(=O)(=O)N4CCCCC4)cc3)[nH]n2)c(O)c1 | 100 | 100 | 100 | 100 |
| COCCNCC(O)Cn1c2ccc(Cl)cc2c2cc(Cl)ccc21 (configuration not stated) | 66.66 | 100 | 100 | 100 |
| COc1ccc(N2CCN(C(CNC(=O)C3CCCCC3)c3ccc4c(c3)OCO4)CC2)cc1 (configuration not stated) | 100 | 100 | 100 | 100 |
| O=C(NC1CCN(Cc2ccccc2)CC1)c1cc(-c2ccncc2)nc2ccc(Cl)cc12 | 100 | 100 | 100 | 100 |
| COc1cc2cc(C(=O)Nc3ccccc3)c(N)nc2cc1OC | 100 | 100 | 100 | 100 |
| Cc1[nH]c(-c2ccc(F)cc2)cc1C(=O)NC1CCN(Cc2ccccc2)CC1 | 100 | 100 | 100 | 100 |
| O=C(O)C(=O)O.Oc1ccccc1CN1CCN(C(c2ccccc2)c2ccccc2)CC1 | 100 | 100 | 100 | 100 |
| O=C(NC1CCCC1)c1ccc(N2CCC(NCc3cccc(C(F)(F)F)c3)CC2)cc1 | 100 | 100 | 100 | 100 |
| CCOc1cc(Br)c(C(C)NC(=O)c2cccc(OC)c2)cc1OCC (configuration not stated) | 100 | 100 | 100 | 100 |
| CCN(CC)CCn1c(=N)n(CC(O)c2ccc(Cl)c(Cl)c2)c2ccccc21.Cl (configuration not stated) | 100 | 100 | 100 | 100 |
| CCOc1cc(Cl)c(C(C)NC(=O)c2cccc(OC)c2)cc1OCC (configuration not stated) | 100 | 100 | 100 | 100 |
| CC(=O)Nc1nnc(SCc2c(C)cc(C(C)(C)C)cc2C)s1 | 100 | 100 | 100 | 100 |
| Cc1ccc(Cl)cc1N1CCN(CCCNC(=O)C2CCN(c3nc4ccccc4[nH]3)CC2)CC1 | 100 | 100 | 100 | 100 |
| Cc1ccc(CSCc2ccc(C(=O)NC3CC3)o2)cc1 | 100 | 100 | 100 | 100 |
| CN1CCN(c2c3c(c(C#N)c4nc5ccccc5n24)CCC3)CC1 | 100 | 100 | 100 | 100 |
| CCOc1ccc(C2N(C)c3ccccc3N2C)cc1 | 100 | 100 | 100 | 100 |
| CC(=O)NCCc1nc2ccccc2n1Cc1ccc(C(C)C)cc1 | 100 | 100 | 100 | 100 |
| COc1nc(Nc2ccc(C(C)C)cc2)nc(OC)n1 | 100 | 100 | 100 | 100 |
| CCN(CC)CCNc1ncnc2c1[nH]c1ccc(Br)cc12 | 100 | 100 | 100 | 100 |
| CCOc1cccc(C(=O)Nc2ccc(-c3nc4ccccc4[nH]3)cc2)c1 | 100 | 100 | 100 | 100 |

| Structure (SMILES) | Motility (Onchocerca lienalis [1]) [%] | Motility (Onchocerca lienalis [2]) [%] | Motility (Onchocerca lienalis [3]) [%] | Motility (Onchocerca lienalis [4]) [%] |
| --- | --- | --- | --- | --- |
| Cl.Clc1cc(Br)ccc1-c1ccc(CNCC2CCNCC2)o1 | 100 | 100 | 100 | 100 |
| CCCC(c1nnnn1C1CCCCC1)N1CCN(C(=O)c2ccco2)CC1.Cl (configuration not stated) | 100 | 100 | 100 | 100 |
| CC(C)(C)C(=O)Nc1ccc(C(=O)Nc2cccc(-c3nc4ccccc4[nH]3)c2)cc1 | 100 | 100 | 100 | 100 |
| COc1ccc(-c2nonc2NC(=O)c2cccc(C)c2)cc1OC | 100 | 100 | 100 | 100 |
| COc1cccc(-c2nn(C)c3sc(C(=O)NCCN4CCN(c5ccccc5F)CC4)cc23)c1 | 100 | 100 | 100 | 100 |
| O=C(Nc1ccc(N2CCN(Cc3ccccc3)CC2)cc1)c1cccs1.O=C(O)C(F)(F)F | 100 | 100 | 100 | 100 |
| Cc1ccc(CN2CCC(C(=O)Nc3ccc(-c4cc5ccccc5[nH]4)cc3)CC2)o1 | 100 | 100 | 100 | 100 |
| O=C(Nc1ccc(N2CCCCC2)c(Cl)c1)c1ccc(Br)o1 | 100 | 100 | 100 | 100 |
| Cc1cc(C)c2nc(N3CCC(C(=O)NCCCN4CCC(N5CCCCC5)CC4)CC3)sc2c1 | 100 | 100 | 100 | 100 |
| CC(C)(C)c1ccc(C(=O)Nc2nc3ccccc3s2)cc1 | 100 | 100 | 100 | 100 |
| CC1CC(C)CN(C(=O)c2ccc(Cl)cc2Cl)C1 (configuration not stated) | 100 | 100 | 100 | 100 |
| COc1ccccc1CNC(=O)C1c2ccccc2C(=O)N(CC(C)C)C1c1cccs1 (configuration not stated) | 100 | 100 | 100 | 100 |
| OC(CNC1CCCC1)Cn1c2ccccc2c2ccccc21 (configuration not stated) | 100 | 100 | 100 | 100 |
| COc1ccc(C2N(C)c3ccccc3N2C)cc1 | 100 | 100 | 100 | 100 |
| CC(C)OCc1cc(CN2CCN(c3cccc(Cl)c3)CC2)c(O)c2ncccc12 | 0 | 100 | 100 | 100 |
| O=C(Nc1ccc(F)c(Cl)c1)Nc1ccc(Cl)c(Cl)c1 | 0 | 100 | 100 | 100 |
| Clc1ccc2[nH]c3c(NCCCN4CCOCC4)ncnc3c2c1 | 100 | 100 | 100 | 100 |
| Oc1c2c(nc3cc(-c4ccccc4)nn13)CCCC2 | 100 | 100 | 100 | 100 |
| CCOc1c(Cl)cc(CNC(C)C(O)c2ccccc2)cc1OC (configuration not stated) | 100 | 100 | 100 | 100 |
| CCCN(CCC)CCCNC(=O)c1cc2c(-c3ccc(OC)c(OC)c3)nn(C)c2s1 | 100 | 100 | 100 | 100 |
| Cc1cc(N2CCN(C3CCCC3)CC2)n2c(nc3ccccc32)c1C#N | 100 | 100 | 100 | 100 |
| CCCCOc1ccc(C(=O)Nc2cc(C)on2)cc1 | 100 | 100 | 100 | 100 |
| O=C(NCC1Cc2cccc(-c3ccncc3)c2O1)c1csc2c1CCCC2 (configuration not stated) | 100 | 100 | 100 | 100 |
| CCc1ccc(Nc2cc(C)nc3nc(C)nn23)cc1 | 100 | 100 | 100 | 100 |
| Br.CCN(CC)S(=O)(=O)c1ccc(-c2csc(Nc3ccc(C)c(C)c3)n2)cc1 | 100 | 100 | 100 | 100 |
| C=CCc1c(C)nc2ccccc2c1O | 100 | 100 | 100 | 100 |
